# Measurements taken from US9289503B2, “Fatty acid fumarate derivatives and their uses” (Catabasis Pharmaceuticals, Inc., priority 2010, dated 2016).
# Key:
# Assay type in all cases: cell-based
# [1] = test system: IL-1β; assay: IL-1β gene expression in LPS-stimulated RAW264.7 macrophages; details: 10 μM; 2 hours pre-incubation, 100 ng/ml LPS 3 hours; compared with 10 μM each DHA and MMF; FIG. 1
# Experimental: RAW264.7 macrophages were seeded at a density of 100,000 cells/well in a 96-well plate in DMEM supplemented with 10% FBS and Penn/strep. 16 hours later, medium was aspirated and replaced with 90 μl/well of serum-free DMEM. A fatty acid fumarate conjugate, DHA and monomethyl-fumarate (MMF) were brought up in 100% EtOH to a concentration of 100 mM and then diluted 1:100 in 100% FBS for a stock solution consisting of 1 mM compound and 1% EtOH. these stock solutions were then diluted 1:10 in FBS supplemented with 1% EtOH to generate a 100 μM of a fatty acid fumarate conjugate and 100 μM each of DHA and MMF. 10 μl was then added to the RAW246.7 cells to generate final concentrations 10 μM of the fatty acid fumarate conjugate or 10 μM each DHA and MMF, along with vehicle only control. […] IL-1β and TNF-α transcript levels were then measured using Taqman primer/probe assay sets (Applied Biosystems), normalized to GAPDH using the deltaCt method, and the data expressed relative to vehicle only control. […]
# RAW264.7 macrophages are seeded at a density of 100,000 cells/well in a 96-well plate in DMEM supplemented with 10% FBS and Penn/strep. […] Transcript levels are then measured using ABI Taqman primer/probe assay kits, normalized to GAPDH using the deltaCt method, and the data expressed relative to vehicle only control.
# [2] = test system: TNF-α; assay: TNF-α gene expression in LPS-stimulated RAW264.7 macrophages; details: 10 μM; 2 hours pre-incubation, 100 ng/ml LPS 3 hours; compared with 10 μM each DHA and MMF; FIG. 1
# Experimental: RAW264.7 macrophages were seeded at a density of 100,000 cells/well in a 96-well plate in DMEM supplemented with 10% FBS and Penn/strep. 16 hours later, medium was aspirated and replaced with 90 μl/well of serum-free DMEM. A fatty acid fumarate conjugate, DHA and monomethyl-fumarate (MMF) were brought up in 100% EtOH to a concentration of 100 mM and then diluted 1:100 in 100% FBS for a stock solution consisting of 1 mM compound and 1% EtOH. these stock solutions were then diluted 1:10 in FBS supplemented with 1% EtOH to generate a 100 μM of a fatty acid fumarate conjugate and 100 μM each of DHA and MMF. 10 μl was then added to the RAW246.7 cells to generate final concentrations 10 μM of the fatty acid fumarate conjugate or 10 μM each DHA and MMF, along with vehicle only control. The compounds were allowed to pre-incubate for 2 hours before stimulation of 100 ng/ml LPS (10 μl of 1 μg/ml LPS was added to each well). Following 3 hours of LPS stimulation, cells were washed once in 1× PBS, aspirated dry, and flash frozen in liquid nitrogen. RNA was then isolated and converted to cDNA using the Cells to cDNA kit (Ambion) according to the manufacturer's protocol. IL-1β and TNF-α transcript levels were then measured using Taqman primer/probe assay sets (Applied Biosystems), normalized to GAPDH using the deltaCt method, and the data expressed relative to vehicle only control. […]
# [3] = test system: Hmox1; assay: Hmox1 target gene expression in RAW264.7 macrophages; details: RAW264.7, 2 hours pre-incubation, 100 ng/ml LPS 3 hours; FIG. 3
# Experimental: RAW264.7 macrophages are seeded at a density of 100,000 cells/well in a 96-well plate in DMEM supplemented with 10% FBS and Penn/strep. 16 hours later, medium is aspirated and replaced with 90 μl/well of serum-free DMEM. A fatty acid fumarate conjugate, DHA and EPA are brought up in 100% EtOH to a concentration of 100 mM and then diluted 1:100 In 100% FBS for a 20× stock solution consisting of 1 mM compound and 1% EtOH. The fatty acid fumarate conjugate 20× stock solutions are diluted 1:2 in FBS supplemented with 1% EtOH for a 500 uM 10× stock solution, whereas equal volumes of the DHA and EPA 20× stock solutions are mixed to create a 10× stock solution containing 500 μm each of DHA and EPA. […] The compounds are allowed to pre-incubate for 2 hours before stimulation of 100 ng/ml LPS (10 μl of 1 μg/ml LPS is added to each well). Following 3 hours of LPS stimulation, cells are washed once in 1× PBS, aspirated dry, and flash frozen in liquid nitrogen. RNA is then isolated and converted to cDNA using the Cells to cDNA kit (Ambion) according to the manufacturer's protocol. Transcript levels are then measured using ABI Taqman primer/probe assay kits, normalized to GAPDH using the deltaCt method, and the data expressed relative to vehicle only control.
compound,measurement,setting,value
"CC/C=C\C/C=C\C/C=C\C/C=C\C/C=C\C/C=C\CCC(=O)NCCNC(=O)/C=C/C(=O)OC [Compound I-1, (E)-methyl 4-(2-(4Z,7Z,10Z,13Z,16Z,19Z)-docosa-4,7,10,13,16,19-hexaenamidoethylamino)-4-oxobut-2-enoate]",IL-1β gene expression,[1],greater reduction
same,TNF-α gene expression,[2],greater reduction
same,effect on the target gene Hmox1,[3],positive effect
